Assay results published in paper PMC12892976, “Alkylation-based optimization of antifungal FPPS inhibitors yields a potent, broad-spectrum lipophilic zoledronate derivative” (mBio, 2025).

Experiments:
[1] = test system: Cryptococcus deneoformans; test: checkerboard drug interaction (FICI, MICc); format: cell-based;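 further: simplified diagonal checkerboard screen pairing antifungals with FPPS inhibitors, FICI calculated under the Loewe additivity model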
Protocol: (§1) Drug interactions between antifungals and FPPS inhibitors were investigated using a simplified checkerboard diagonal screening method ([45]). […] FICIs were determined according to the Loewe additivity model ([17]).

Fusarium oxysporum = test: MIC broth microdilution (CLSI); format: cell-based; details: Fusarium oxysporum 07-200-3012
Protocol: (§2) Antifungal susceptibility was determined by broth microdilution according to the CLSI guidelines described in M27-Ed4 ([16]).

[2] = test system: Aspergillus frankstonensis; test: MIC broth microdilution (CLSI); format: cell-based; details: Aspergillus frankstonensis DTO 341-F3
Protocol: as §2

Aspergillus terreus [3] = test: MIC broth microdilution (CLSI); format: cell-based; details: Aspergillus terreus 75-16-089-2500
Protocol: as §2

Microsporum canis = test: checkerboard drug interaction (FICI, MICc); format: cell-based;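 further: simplified diagonal checkerboard screen pairing antifungals with FPPS inhibitors, FICI calculated under the Loewe additivity model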
Protocol: as §1

Aspergillus niger [4] = test: MIC broth microdilution (CLSI); format: cell-based; details: Aspergillus niger 111
Protocol: as §2

Nannizzia nana = test: checkerboard drug interaction (FICI, MICc); format: cell-based;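 further: simplified diagonal checkerboard screen pairing antifungals with FPPS inhibitors, FICI calculated under the Loewe additivity model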
Protocol: as §1

Mucor circinelloides = test: MIC broth microdilution (CLSI); format: cell-based; details: Mucor circinelloides 80-14-240-5007
Protocol: as §2

Fusarium solani [5] = test: MIC broth microdilution (CLSI); details: Fusarium solani 04-16-056-1862
Protocol: as §2

Nannizzia gypsea = test: checkerboard drug interaction (FICI, MICc);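 further: simplified diagonal checkerboard screen pairing antifungals with FPPS inhibitors, FICI derived using the Loewe additivity model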
Protocol: as §1

Pichia kudriavzevii = test: checkerboard drug interaction (FICI, MICc); format: cell-based;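 further: antifungal plus FPPS inhibitor interactions tested in a simplified diagonal checkerboard screen, with FICI calculated under the Loewe additivity model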
Protocol: as §1

Trichophyton tonsurans [6] = test: checkerboard drug interaction (FICI, MICc); format: cell-based;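 further: simplified diagonal checkerboard screen combining antifungals with FPPS inhibitors, with FICI calculated under the Loewe additivity model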
Protocol: as §1

Lomentospora prolificans [7] = test: MIC broth microdilution (CLSI); format: cell-based; details: Lomentospora prolificans 80-16-101-2445
Protocol: as §2

Cryptococcus gattii [8] = test: MIC broth microdilution (CLSI); format: cell-based; details: Cryptococcus gattii PNG27
Protocol: as §2

Cryptococcus gattii [9] = test: checkerboard drug interaction (FICI, MICc); format: cell-based;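 further: simplified diagonal checkerboard screen pairing antifungals with FPPS inhibitors, FICI computed under the Loewe additivity model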
Protocol: as §1

Aspergillus lentulus [10] = test: MIC broth microdilution (CLSI); format: cell-based; details: Aspergillus lentulus DTO 341-G7
Protocol: as §2

Rhizopus oryzae = test: MIC broth microdilution (CLSI); format: cell-based; details: Rhizopus oryzae 04-14-364-1703
Protocol: as §2

Cryptococcus tetragattii = test: checkerboard drug interaction (FICI, MICc); format: cell-based;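 further: simplified diagonal checkerboard screen pairing antifungals with FPPS inhibitors, with FICI calculated under the Loewe additivity model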
Protocol: as §1

Aspergillus lentulus [11] = test: checkerboard drug interaction (FICI, MICc); format: cell-based;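 further: simplified diagonal checkerboard screen pairing antifungals with FPPS inhibitors, with the interaction index calculated under the Loewe additivity model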
Protocol: as §1

Candida dubliniensis = test: checkerboard drug interaction (FICI, MICc); format: cell-based;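 further: simplified diagonal checkerboard screen pairing antifungals with FPPS inhibitors, FICI calculated under the Loewe additivity model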
Protocol: as §1

Trichophyton soudanense = test: checkerboard drug interaction (FICI, MICc); format: cell-based;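 further: simplified diagonal checkerboard screen pairing antifungals with FPPS inhibitors, FICI computed under the Loewe additivity model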
Protocol: as §1

Aspergillus niger [12] = test: checkerboard drug interaction (FICI, MICc); format: cell-based
Protocol: as §1

Epidermophyton floccosum [13] = test: checkerboard drug interaction (FICI, MICc)
Protocol: as §1

Fusarium solani [14] = test: checkerboard drug interaction (FICI, MICc); format: cell-based;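 further: simplified diagonal checkerboard screen pairing antifungals with FPPS inhibitors, FICI derived under the Loewe additivity model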
Protocol: as §1

Candida parapsilosis = test: MIC broth microdilution (CLSI); format: cell-based; details: Candida parapsilosis ATCC 22018
Protocol: Antifungal susceptibility was determined by broth microdilution according to the CLSI guidelines described in M27-Ed4 ([16]). […] MFC was determined by back-plating drug-treated cultures from MIC broths onto SDA plates. The MFC was defined as the lowest concentration from which no colonies could be cultured.

Lomentospora prolificans [15] = test: checkerboard drug interaction (FICI, MICc)
Protocol: as §1

Aspergillus parafelis = test: MIC broth microdilution (CLSI); format: cell-based; details: Aspergillus parafelis DTO 341-F2
Protocol: as §2

Aspergillus felis = test: MIC broth microdilution (CLSI); format: cell-based; details: Aspergillus felis IHE87256683D6
Protocol: as §2

Candida tropicalis = test: checkerboard drug interaction (FICI, MICc); format: cell-based;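 further: simplified diagonal checkerboard screen of antifungal plus FPPS inhibitor combinations, with FICI computed by the Loewe additivity model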
Protocol: as §1

Epidermophyton floccosum [16] = test: MIC broth microdilution (CLSI); format: cell-based; details: Epidermophyon floccosum R-113
Protocol: as §2

[17] = test system: Aspergillus frankstonensis; test: checkerboard drug interaction (FICI, MICc);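 further: simplified diagonal checkerboard screen pairing antifungals with FPPS inhibitors, FICI calculated using the Loewe additivity model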
Protocol: as §1

Trichophyton tonsurans [18] = test: MIC broth microdilution (CLSI); details: Trichophyton tonsurans R-168
Protocol: as §2

Aspergillus terreus [19] = test: checkerboard drug interaction (FICI, MICc); format: cell-based;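 further: simplified diagonal checkerboard screen pairing antifungals with FPPS inhibitors, FICI derived by the Loewe additivity model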
Protocol: as §1

Paraphyton cookei = test: MIC broth microdilution (CLSI); format: cell-based; details: Paraphyton cookei R-639
Protocol: as §2

Nc1nc(=O)[nH]cc1F [5FC, 5-flucytosine]
0.125: antifungal MICc (Cryptococcus gattii [9]; in combination with ZOL) | antifungal MICc (Candida dubliniensis; in combination with 10-ZOL) | antifungal MICc (Candida dubliniensis; in combination with ZOL) | antifungal MICc (Candida tropicalis; in combination with ZOL)
64: antifungal MICc (Nannizzia nana; in combination with ZOL) | antifungal MICc (Trichophyton tonsurans [6]; in combination with 10-ZOL) | antifungal MICc (Trichophyton tonsurans [6]; in combination with ZOL) | antifungal MICc (Trichophyton soudanense; in combination with 10-ZOL) | antifungal MICc (Trichophyton soudanense; in combination with ZOL) | antifungal MICc (Aspergillus terreus [19]; in combination with 10-ZOL)
>64 µg/mL: MIC / MEC (Fusarium oxysporum) | MIC / MEC [2] | MIC / MEC (Aspergillus niger [4]) | MIC / MEC (Mucor circinelloides) | MIC / MEC (Fusarium solani [5]) | MIC / MEC (Lomentospora prolificans [7]) | MIC / MEC (Aspergillus lentulus [10]) | MIC / MEC (Rhizopus oryzae) | MIC / MEC (Aspergillus parafelis) | MIC / MEC (Aspergillus felis) | MIC / MEC (Paraphyton cookei)
512: antifungal MICc (Microsporum canis; in combination with ZOL) | antifungal MICc (Nannizzia gypsea; in combination with 10-ZOL) | antifungal MICc (Aspergillus lentulus [11]; in combination with 10-ZOL) | antifungal MICc (Aspergillus niger [12]; in combination with 10-ZOL) | antifungal MICc (Fusarium solani [14]; in combination with 10-ZOL)
0.5 µg/mL: MIC / MEC (Cryptococcus gattii [8]) | MIC / MEC (Candida parapsilosis)
32: antifungal MICc (Nannizzia nana; in combination with 10-ZOL) | antifungal MICc (Epidermophyton floccosum [13]; in combination with 10-ZOL) | antifungal MICc (Epidermophyton floccosum [13]; in combination with ZOL) | antifungal MICc (Aspergillus terreus [19]; in combination with ZOL)
0.25: antifungal MICc ([1]; in combination with 10-ZOL) | antifungal MICc (Cryptococcus gattii [9]; in combination with 10-ZOL)
16: antifungal MICc (Pichia kudriavzevii; in combination with 10-ZOL)
2: antifungal MICc (Pichia kudriavzevii; in combination with ZOL)
0.5: antifungal MICc ([1]; in combination with ZOL) | antifungal MICc (Cryptococcus tetragattii; in combination with 10-ZOL) | antifungal MICc (Cryptococcus tetragattii; in combination with ZOL) | antifungal MICc (Candida tropicalis; in combination with 10-ZOL)
256: antifungal MICc (Microsporum canis; in combination with 10-ZOL) | antifungal MICc (Nannizzia gypsea; in combination with ZOL) | antifungal MICc (Aspergillus lentulus [11]; in combination with ZOL) | antifungal MICc (Aspergillus niger [12]; in combination with ZOL) | antifungal MICc (Fusarium solani [14]; in combination with ZOL) | antifungal MICc (Lomentospora prolificans [15]; in combination with 10-ZOL) | antifungal MICc (Lomentospora prolificans [15]; in combination with ZOL) | antifungal MICc ([17]; in combination with 10-ZOL) | antifungal MICc ([17]; in combination with ZOL)
64 µg/mL: MIC / MEC (Aspergillus terreus [3]) | MIC / MEC (Epidermophyton floccosum [16]) | MIC / MEC (Trichophyton tonsurans [18])
